This is an account of results in patent US20070243254A1, “NOVEL DRUG COMPOSITIONS AND DOSAGE FORMS OF TOPIRAMATE” (priority 2002, published 2007).

In brackets after ≈: the same amount, converted by molar mass. Read-outs that look alike come from different tables or passages of the source.

For data set [1] the following is noted: cited from earlier work.
Data set [2] in a line: equilibrium solubility of topiramate in de-ionized water and aqueous surfactant solutions. The format is physicochemical. To be noted: for solubility: de-ionized water. As for the experimental part: As defined herein, the solubility of a pharmaceutical agent is determined by adding the pharmaceutical agent to stirred or agitated de-ionized water maintained in a constant temperature bath at a temperature of 37° C. until no more pharmaceutical agent dissolves. The resulting solution saturated with the pharmaceutical agent is then filtered, typically under pressure through a 0.8-micron Millipore filter, and the concentration of the pharmaceutical agent in the solution is measured by any appropriate analytical method including gravimetric, ultraviolet spectrophometry, chromatography, and the like. The solubility of the pharmaceutical agent is measured at equilibrium.
A drug composition of the present invention was prepared as follows. Aqueous solutions of five surfactants were prepared. The selected surfactants were four grades of ethylene oxide/propylene oxide/ethylene oxide (LUTROL grades F127, F87, F108, and F68) and PEG-40 stearate (MYRJ 52). Solutions were made at concentrations of 1, 5, and 15 weight percent. The aqueous surfactant blends solutions were chilled as necessary to promote complete dissolution of the surfactant prior to drug solubility studies.
The aqueous surfactant solutions were equilibrated to constant temperature in a 37° C. water bath. Then, neat topiramate drug was added slowly with stirring in approximately 10 mg increments to the surfactant solutions until no more drug dissolved. A control sample of drug dissolved in de-ionized water without surfactant was included for comparison purposes. The resulting saturated solutions of drug were filtered through 0.8 micron filters and analyzed for drug concentration by refractive index chromatography. The resulting solubility values were plotted as a function of both surfactant concentration and the hydrophilic-lipophilic balance value of each surfactant. FIG. 6 was constructed from the solubility values obtained and HLB data for each surfactant utilized.

The conditions of data set [3]: cited from earlier work. This is another data set of the same source.

As a reminder, the solubility is the dissolved amount per volume that the medium holds. Regarding `CC1(C)O[C@@H]2[C@@H](CO[C@@]3(COS(N)(=O)=O)OC(C)(C)O[C@@H]23)O1` [topiramate, 2,3:4,5-bis-O-(1-methylethylidene)-β-D-fructopyranose sulfamate], in data set [1] (acetone, dimethylsulfoxide, ethanol), the “solubility in organic solvents” value is “soluble in acetone, dimethylsulfoxide and ethanol”. In addition, the “solubility in alkaline solutions” value in data set [1] (alkaline solutions containing sodium hydroxide or sodium phosphate) is reported as “soluble in alkaline solutions”. In addition, the “solubility of topiramate in water” value in data set [1] (room temperature) was “about 9.8 mg/ml”. Further, in data set [2] (LUTROL F127, F87, F108, F68, MYRJ 52 at 1, 5, 15 weight percent, 37° C.), the “solubility in water in presence of surfactant” value was “increased by each surfactant”. Also, the solubility in data set [2] (water, thermodynamic from solid, without surfactant, 37° C., read-out: solubility in de-ionized water) was ~12 mg/mL (≈ 35.4 mM). In addition, the solubility in data set [2] (read-out: solubility of neat topiramate (range)) lay within 9.8 to 13 mg/mL (≈ 28.9 to 38.3 mM). Besides, in data set [3] (in vivo), the “dose proportionality of pharmacokinetics” value is “linear”, the “effect of food on pharmacokinetics” value is recorded as “not significantly affected by food”, the excretion result was “excreted largely through the urine” and the “mean elimination half life” value was “about 21 hours”. Also, in data set [3] (in vivo), the metabolism entry is on record as “not extensively metabolized”. Also, the “time to peak plasma drug concentrations” value in data set [3] (oral, immediate release dosage form) is “approximately 2 hours”.
